In US20240226342A1, “REACTIVE OXYGEN SPECIES IMAGING AGENTS” (Washington University, priority 2022, published 2024):

Key:
[1] = test system: 3NP-induced ROS-mediated neurodegeneration in mice; experiment: PET/CT imaging after stereotaxic injection of 3-NP into striatum; type: in vivo
Method: FIG. 10A-FIG. 10D is an exemplary embodiment showing preclinical PET/CT imaging in accordance with the present disclosure. C57BI6 mice (n=4) were injected with either 3-Nitropropionic acid (3-NP) or saline into striatum. 72 h following treatments, 18F-SLN-128 was injected via tail-vein into mice. FIG. 10A includes PET/CT images shown as a summation frames from 45-60 min. Dynamic PET images acquired from 0 min to 60 min post tail-vein injection. Left: Control; Right: 3-NP treated (1 mg/kg, 72 h post treatment). FIG. 10B is a bar graph showing uantified uptake (% ID/cm^3) from PET imaging. FIG. 10C includes images of brains extracted from mice, fixed in PFA/sucrose; sectioned (40 μm); stained with Cresyl violet; Arrow indicates injection site. […]
Systemic administration of LPS induces oxidative stress and resulting a release of inflammatory cytokines, sustained microglial activation, and neuronal cell loss in brain areas, such as the hippocampus, cerebral cortex, substantia nigra, ventral tegmental area, and thalamus, alters the levels of neurotransmitters in adult animals, and cerebellum. […] Finally, the brain uptake (see e.g., FIG. 9C) derived from PET imaging also correlated with 60 min post imaging quantified uptake (see e.g., FIG. 9D) indicating potential of the radiotracer for imaging endotoxin mediated brain inflammation in vivo. […]

[2] = Dynamic PET/MR brain imaging of normal rhesus monkey; type: in vivo
Method: FIG. 12A-FIG. 12B is an exemplary embodiment showing dynamic MR/PET brain imaging of normal rhesus monkey (10 Kg) following intravenous injection of 18F-SLN-128 (5.8 mCi) over 2 h in accordance with the present disclosure. FIG. 12A includes images showing summation of PET data over 10 min and co-registered with T2-weighted MR image of the monkey for anatomical reference. FIG. 12B is a line graph showing SUVs as a time-activity curve for the tracer influx and clearance from important regions of the brain.
Of note, these NHP brain SUV values are 2.5-fold higher than reported for ^18F-ROStrace thus likely to translate into higher contrast brain images compared with ^18F-ROStrace (SUV=1.35). […] Tissue time-activity curves (TACs) also show fast initial uptake with maximum projection of activity at 7-10 min followed by clearance of ^18F-SLN-128 at later time-points from amygdala, caudate, cerebellum, cortex (frontal, insular, occipital and temporal), cerebellum, hippocampus, putamen, thalamus, and white matter of rhesus monkey brain.

## COc1ccc2c(c1)N(C)C(c1ccc(O)c(OCC[18F])c1)c1cccn1-2 (centres unmarked) [18F-SLN-128]
[1]; 3-NP treated mice
  correlation of brain uptake with immunohistochemistry: maps with neurodegeneration and microglial activation in the striatum regions
[1]; 72 h post 3-NP into striatum
  retention in brains of 3-NP treated mice compared with saline treated: 2 fold
[2]; later time points
  clearance from brain regions: excreted from critical regions at later-time points
[2]; over 2 h
  nonspecific retention in normal monkey brain: Insignificant nonspecific retention
[2]; rhesus monkey
  time of maximum SUV: 7 to 10 min
[2]; rhesus monkey, in vivo
  NHP brain SUV relative to 18F-ROStrace: 2.5 fold
[2]; rhesus monkey, intravenous injection
  maximum Standard Uptake Value (SUV) in brain: 3.5
[2]; samples at an interval of 3 min over 2 hours
  metabolites in venous blood (radio-HPLC, γ-counter): did not show any metabolite
